Reference: patent US20080051418A1, “Arylalkanoic Acid Derivative” (priority 2004, published 2008)

Row | SMILES | melting point
1 | Cc1cc(Cl)ccc1Cn1nc(OC(C)C)cc1CCCOc1ncccc1CC(=O)O [Example 74, (2-{3-[1-(4-chloro-2-methylbenzyl)-3-isopropoxy-1H-pyrazol-5-yl]propoxy}pyridin-3-yl)acetic acid] | 97 to 98 °C
2 | CCCOc1cc(CCCOc2nn(Cc3ccccc3)cc2CC(=O)O)n(Cc2ccc(Cl)cc2Cl)n1 [Example 89, (1-benzyl-3-{3-[1-(2,4-dichlorobenzyl)-3-propoxy-1H-pyrazol-5-yl]propoxy}-1H-pyrazol-4-yl)acetic acid] | 132 to 134 °C
3 | CCOc1cc(CCCOc2c(CC(=O)O)cccc2OC)n(Cc2ccc(Cl)cc2Cl)n1 [Example 26, (2-{3-[1-(2,4-dichlorobenzyl)-3-ethoxy-1H-pyrazol-5-yl]propoxy}-3-methoxyphenyl)acetic acid] | 109 to 110 °C
4 | CCc1cccc(CC(=O)O)c1OCCn1cc(C(=O)NCc2ccc(C(F)(F)F)cc2)c(OC(C)C)n1 [Example 184, (3-ethyl-2-{2-[3-isopropoxy-4-({[4-(trifluoromethyl)benzyl]amino}carbonyl)-1H-pyrazol-1-yl]ethoxy}phenyl)acetic acid] | 110 to 111 °C
5 | CC(C)Oc1cc(COc2cc(CCC(=O)O)n(-c3ccccc3)n2)cc(COc2ncc(C(F)(F)F)cc2Cl)c1 [Example 203, 3-(3-{[3-({[3-chloro-5-(trifluoromethyl)pyridin-2-yl]oxy}methyl)-5-isopropoxybenzyl]oxy}-1-phenyl-1H-pyrazol-5-yl)propanoic acid] | 140 to 142 °C
6 | CC(C)c1ncc(CCCOc2nn(Cc3ccccc3)cc2CC(=O)O)c(Oc2ccc(Cl)cc2Cl)n1 [Example 129, (3-{3-[4-(2,4-dichlorophenoxy)-2-isopropylpyrimidin-5-yl]propoxy}-1-benzyl-1H-pyrazol-4-yl)acetic acid] | 98 to 99 °C
7 | CN(C)CCOc1cc(CCCOc2nn(Cc3ccccc3)cc2CC(=O)O)n(Cc2ccc(Cl)cc2Cl)n1 [Example 96, [1-benzyl-3-(3-{1-(2,4-dichlorobenzyl)-3-[2-(dimethylamino)ethoxy]-1H-pyrazol-5-yl}propoxy)-1H-pyrazol-4-yl]acetic acid] | 78.3 to 80.8 °C
8 | CC(C)Oc1ccc(CCCOc2nn(C)cc2CC(=O)O)c(OCc2ccc(Cl)cc2Cl)c1 [Example 174, [3-(3-{2-[(2,4-dichlorobenzyl)oxy]-4-isopropoxyphenyl}propoxy)-1-methyl-1H-pyrazol-4-yl]acetic acid] | 102 to 103 °C
9 | CC(C)Cn1nc(OCCCCc2ccc(OC(C)C)cc2Oc2ncc(C(F)(F)F)cc2Cl)cc1CCC(=O)O [Example 157, 3-{3-[4-(2-{[3-chloro-5-(trifluoromethyl)pyridin-2-yl]oxy}-4-isopropoxyphenyl)butoxy]-1-isobutyl-1H-pyrazol-5-yl}propanoic acid] | 122 to 123 °C
10 | COCCOc1cc(Oc2ccc(C(F)(F)F)cn2)ccc1CCCOc1cc(CCC(=O)O)n(-c2ccccc2)n1 [Example 153, 3-{3-[3-(2-(2-methoxyethoxy)-4-{[5-(trifluoromethyl)pyridin-2-yl]oxy}phenyl)propoxy]-1-phenyl-1H-pyrazol-5-yl}propanoic acid] | 83 to 85 °C
11 | COCCOc1ccc(CCCOc2cc(CCC(=O)O)n(C)n2)c(OCc2ccc(C(F)(F)F)cc2)c1 [Example 169, 3-{3-[3-(4-(2-methoxyethoxy)-2-{[4-(trifluoromethyl)benzyl]oxy}phenyl)propoxy]-1-methyl-1H-pyrazol-5-yl}propanoic acid] | 110 to 111 °C
12 | CC(C)Oc1ccc(CCCCOc2cc(CCC(=O)O)n(C)n2)c(Oc2ncc(C(F)(F)F)cc2Cl)c1 [Example 155, 3-{3-[4-(2-{[3-chloro-5-(trifluoromethyl)pyridin-2-yl]oxy}-4-isopropoxyphenyl)butoxy]-1-methyl-1H-pyrazol-5-yl}propanoic acid] | 156 to 157 °C
13 | CC(C)Oc1ccc(CCCOc2cc(CCC(=O)O)n(-c3ccccc3)n2)c(Oc2ccc(C(F)(F)F)cn2)c1 [Example 172, 3-{3-[3-(4-isopropoxy-2-{[5-(trifluoromethyl)pyridin-2-yl]oxy}phenyl)propoxy]-1-phenyl-1H-pyrazol-5-yl}propanoic acid] | 80 to 82 °C
14 | COc1cccc(CC(=O)O)c1OCCCc1cc(OC(C)C)nn1Cc1ccc2ccccc2n1 [Example 10, (2-{3-[3-isopropoxy-1-(quinolin-2-ylmethyl)-1H-pyrazol-5-yl]propoxy}-3-methoxyphenyl)acetic acid] | 129 to 130 °C
15 | CCCOc1cc(CCCOc2c(CC(=O)O)cccc2OC)n(Cc2ccc(Cl)cc2)n1 [Example 81, (2-{3-[1-(4-chlorobenzyl)-3-propoxy-1H-pyrazol-5-yl]propoxy}-3-methoxyphenyl)acetic acid] | 131 to 132 °C
16 | CC(C)Oc1cc(CCCOc2cc(CCC(=O)O)n(Cc3ccccc3)n2)n(Cc2ccc(Cl)cc2Cl)n1 [Example 191, 3-(1-benzyl-3-{3-[1-(2,4-dichlorobenzyl) -3-isopropoxy-1H-pyrazol-5-yl]propoxy}-1H-pyrazol-5-yl)propanoic acid] | 123 to 126 °C
17 | CC(C)Oc1cc(Oc2ccc(C(F)(F)F)cn2)ccc1CCCOc1cc(CCC(=O)O)n(-c2ccccc2)n1 [Example 151, 3-{3-[3-(2-isopropoxy-4-{[5-(trifluoromethyl)pyridin-2-yl]oxy}phenyl)propoxy]-1-phenyl-1H-pyrazol-5-yl}propanoic acid] | 129.5 to 130.5 °C

Row | SMILES | melting point
18 | CC(C)Oc1ccc(CCCOc2cc(CCC(=O)O)n(C)n2)c(Oc2ncc(Cl)cc2Cl)c1 [Example 140, 3-[3-(3-{2-[(3,5-dichloropyridin-2-yl)oxy]-4-isopropoxyphenyl}propoxy)-1-methyl-1H-pyrazol-5-yl]propanoic acid] | 77 to 78 °C
19 | CCOc1ccc(CCCOc2c(CC(=O)O)cccc2OC)c(Oc2ccc(Cl)cc2Cl)n1 [Example 134, (2-{3-[2-(2,4-dichlorophenoxy)-6-ethoxypyridin-3-yl]propoxy}-3-methoxyphenyl)acetic acid] | 89 to 91 °C
20 | CCCOc1cc(CCCOc2nn(C)cc2CC(=O)O)n(Cc2ccc(Cl)cc2Cl)n1 [Example 88, (3-{3-[1-(2,4-dichlorobenzyl)-3-propoxy-1H-pyrazol-5-yl]propoxy}-1-methyl-1H-pyrazol-4-yl)acetic acid] | 77 to 81 °C
21 | CCn1nc(OCCCc2ccc(OC(C)C)cc2OCc2ccc(Cl)cc2Cl)cc1CCC(=O)O [Example 163, 3-[3-(3-{2-[(2,4-dichlorobenzyl)oxy]-4-isopropoxyphenyl}propoxy)-1-ethyl-1H-pyrazol-5-yl]propanoic acid] | 110 to 111 °C
22 | Cc1cccc(CC(=O)O)c1OCCCc1cc(OC(C)C)nn1Cc1ccc(Cl)cc1Cl [Example 24, (2-{3-[1-(2,4-dichlorobenzyl) -3-isopropoxy-1H-pyrazol-5-yl]propoxy}-3-methylphenyl)acetic acid] | 70 to 71 °C
23 | CC(C)Oc1cc(COc2cc(CCC(=O)O)n(C)n2)cc(COc2ccc(Cl)cc2Cl)c1 [Example 194, 3-[3-({3-[(2,4-dichlorophenoxy)methyl]-5-isopropoxybenzyl}oxy)-1-methyl-1H-pyrazol-5-yl]propanoic acid] | 105 to 106 °C
24 | CC(C)Oc1cc(CCCOc2cc(CCC(=O)O)n(C)n2)cc(COc2ccc(Cl)cc2Cl)c1 [Example 197, 3-[3-(3-{3-[(2,4-dichlorophenoxy)methyl]-5-isopropoxyphenyl}propoxy)-1-methyl-1H-pyrazol-5-yl]propanoic acid] | 116 to 120 °C
25 | CCOc1cccc(CC(=O)O)c1OCCCc1cc(OC(C)C)nn1Cc1ccc(Cl)cc1Cl [Example 23, (2-{3-[1-(2,4-dichlorobenzyl)-3-isopropoxy-1H-pyrazol-5-yl]propoxy}-3-ethoxyphenyl)acetic acid] | 132 to 133 °C
26 | CCc1cnn(CC(=O)O)c1OCCn1cc(C(=O)NCc2ccc(C(F)(F)F)cc2)c(OC(C)C)n1 [Example 185, (4-ethyl-5-{2-[3-isopropoxy-4-({[4-(trifluoromethyl)benzyl]amino}carbonyl)-1H-pyrazol-1-yl]ethoxy}-1H-pyrazol-1-yl)acetic acid] | 183 to 184 °C
27 | COc1cc(CCCOc2c(CC(=O)O)cccc2OC)n(Cc2ccc(Cl)cc2Cl)n1 [Example 28, (2-{3-[1-(2,4-dichlorobenzyl)-3-methoxy-1H-pyrazol-5-yl]propoxy}-3-methoxyphenyl)acetic acid] | 111 to 112 °C
28 | CCCOc1cc(CCCOc2nn(Cc3ccccc3)cc2CC(=O)O)n(Cc2ccc(F)cc2F)n1 [Example 90, (1-benzyl-3-{3-[1-(2,4-difluorobenzyl)-3-propoxy-1H-pyrazol-5-yl]propoxy}-1H-pyrazol-4-yl)acetic acid] | 94 to 95 °C
29 | CCOc1nn(Cc2ccc(Cl)cc2Cl)cc1CCCOc1cc(CCC(=O)O)n(-c2ccccc2)n1 [Example 183, 3-(3-{3-[1-(2,4-dichlorobenzyl)-3-ethoxy-1H-pyrazol-4-yl]propoxy}-1-phenyl-1H-pyrazol-5-yl)propanoic acid] | 132 to 133 °C
30 | CC(C)Oc1cc(COc2ccc(C(F)(F)F)cc2)cc(COc2cc(CCC(=O)O)n(-c3ccccc3)n2)c1 [Example 202, 3-{3-[(3-isopropoxy-5-{[4-(trifluoromethyl)phenoxy]methyl}benzyl)oxy]-1-phenyl-1H-pyrazol-5-yl}propanoic acid] | 55 to 58 °C
31 | CCOc1nn(Cc2ccc(Cl)cc2Cl)cc1CCCOc1cc(CCC(=O)O)n(Cc2ccccc2)n1 [Example 182, 3-(1-benzyl-3-{3-[1-(2,4-dichlorobenzyl)-3-ethoxy-1H-pyrazol-4-yl]propoxy}-1H-pyrazol-5-yl)propanoic acid] | 84 to 85 °C
32 | CCn1nc(OCCCc2ccc(OCCOC)cc2OCc2ccc(C(F)(F)F)cc2)cc1CCC(=O)O [Example 170, 3-{1-ethyl-3-[3-(4-(2-methoxyethoxy)-2-{[4-(trifluoromethyl)benzyl]oxy}phenyl)propoxy]-1H-pyrazol-5-yl}propanoic acid] | 112 to 113 °C
33 | CC(C)c1nn(Cc2ccc(Cl)cc2Cl)cc1CCCOc1cc(CCC(=O)O)n(-c2ccccc2)n1 [Example 190, 3-(3-{3-[1-(2,4-dichlorobenzyl)-3-isopropyl-1H-pyrazol-4-yl]propoxy}-1-phenyl-1H-pyrazol-5-yl)propanoic acid] | 105 to 107 °C
